{
  "source": "BindingDB's records for doi:10.1016/j.bmcl.2006.08.053",
  "about": "(Merck Research Laboratories, 2006)",
  "data": [
    {"experiment": "Release of camptothecin-induced cell cycle arrest in NCI-H1299 cells mediated by CHEK1 inhibition", "units": {"EC50": "nM"}, "values": [
      {"smiles": "O=c1[nH]c2ccc(-c3cn[nH]c3)cc2cc1-c1cc2cc(CN3CCCCC3)ccc2[nH]1", "EC50": 97},
      {"smiles": "N#Cc1ccc2[nH]c(=O)c(-c3cc4cc(CN5CCCCC5)ccc4[nH]3)cc2c1", "note": "[2-oxo-3-(5-(piperidin-1-ylmethyl)-1H-indol-2-yl)-1,2-dihydroquinoline-6-carbonitrile]", "EC50": 170},
      {"smiles": "NC(=O)c1ccc2[nH]c(=O)c(-c3cc4cc(CN5CCCCC5)ccc4[nH]3)cc2c1", "note": "[2-oxo-3-(5-(piperidin-1-ylmethyl)-1H-indol-2-yl)-1,2-dihydroquinoline-6-carboxamide]", "EC50": 520},
      {"smiles": "COCC(=O)N1CCN(Cc2ccc3[nH]c(-c4cc5cc(-c6cn[nH]c6)ccc5[nH]c4=O)cc3c2)CC1", "note": "[3-(5-((4-(2-methoxyacetyl)piperazin-1-yl)methyl)-1H-indol-2-yl)-6-(1H-pyrazol-4-yl)quinolin-2(1H)-one]", "EC50": 1140},
      {"smiles": "N#Cc1ccc2[nH]c(=O)c(-c3cc4cc(CN5CCC(CN)CC5)ccc4[nH]3)cc2c1", "note": "[3-(5-((4-(aminomethyl)piperidin-1-yl)methyl)-1H-indol-2-yl)-2-oxo-1,2-dihydroquinoline-6-carbonitrile]", "EC50": 3700},
      {"smiles": "NCC1CCN(Cc2ccc3[nH]c(-c4cc5cc(C(N)=O)ccc5[nH]c4=O)cc3c2)CC1", "note": "[3-(5-((4-(aminomethyl)piperidin-1-yl)methyl)-1H-indol-2-yl)-2-oxo-1,2-dihydroquinoline-6-carboxamide]", "EC50": 3900},
      {"smiles": "CC(=O)N1CCN(Cc2ccc3[nH]c(-c4cc5cc(-c6cnn(C)c6)ccc5[nH]c4=O)cc3c2)CC1", "note": "[3-(5-((4-acetylpiperazin-1-yl)methyl)-1H-indol-2-yl)-6-(1-methyl-1H-pyrazol-4-yl)quinolin-2(1H)-one]", "EC50": 420},
      {"smiles": "CC(=O)N1CCN(Cc2ccc3[nH]c(-c4cc5cc(-c6cn[nH]c6)ccc5[nH]c4=O)cc3c2)CC1", "note": "[3-(5-((4-acetylpiperazin-1-yl)methyl)-1H-indol-2-yl)-6-(1H-pyrazol-4-yl)quinolin-2(1H)-one]", "EC50": 870},
      {"smiles": "O=c1[nH]c2ccc(-c3cn[nH]c3)cc2cc1-c1cc2cc(CN3CCC(F)CC3)ccc2[nH]1", "note": "[3-(5-((4-fluoropiperidin-1-yl)methyl)-1H-indol-2-yl)-6-(1H-pyrazol-4-yl)quinolin-2(1H)-one]", "EC50": 120},
      {"smiles": "O=c1[nH]c2ccc(-c3cn[nH]c3)cc2cc1-c1cc2cc(CN3CCOCC3)ccc2[nH]1", "note": "[3-(5-(morpholinomethyl)-1H-indol-2-yl)-6-(1H-pyrazol-4-yl)quinolin-2(1H)-one]", "EC50": 170},
      {"smiles": "O=c1[nH]c2ccc(-n3ccnn3)cc2cc1-c1cc2cc(CN3CCCCC3)ccc2[nH]1", "note": "[3-(5-(piperidin-1-ylmethyl)-1H-indol-2-yl)-6-(1H-1,2,3-triazol-1-yl)quinolin-2(1H)-one]", "EC50": 230},
      {"smiles": "O=c1[nH]c2ccc(-c3cc[nH]n3)cc2cc1-c1cc2cc(CN3CCCCC3)ccc2[nH]1", "note": "[3-(5-(piperidin-1-ylmethyl)-1H-indol-2-yl)-6-(1H-pyrazol-3-yl)quinolin-2(1H)-one]", "EC50": 250},
      {"smiles": "O=c1[nH]c2ccc(-n3nccn3)cc2cc1-c1cc2cc(CN3CCCCC3)ccc2[nH]1", "note": "[3-(5-(piperidin-1-ylmethyl)-1H-indol-2-yl)-6-(2H-1,2,3-triazol-2-yl)quinolin-2(1H)-one]", "EC50": 880},
      {"smiles": "Cn1cc(-c2ccc3[nH]c(=O)c(-c4cc5cc(CN6CCCCC6)ccc5[nH]4)cc3c2)cn1", "note": "[6-(1-methyl-1H-pyrazol-4-yl)-3-(5-(piperidin-1-ylmethyl)-1H-indol-2-yl)quinolin-2(1H)-one]", "EC50": 130},
      {"smiles": "O=c1[nH]c2ccc(-n3ccnc3)cc2cc1-c1cc2cc(CN3CCCCC3)ccc2[nH]1", "note": "[6-(1H-imidazol-1-yl)-3-(5-(piperidin-1-ylmethyl)-1H-indol-2-yl)quinolin-2(1H)-one]", "EC50": 320},
      {"smiles": "Cn1nnc(-c2ccc3[nH]c(=O)c(-c4cc5cc(CN6CCCCC6)ccc5[nH]4)cc3c2)n1", "note": "[6-(2-methyl-2H-tetrazol-5-yl)-3-(5-(piperidin-1-ylmethyl)-1H-indol-2-yl)quinolin-2(1H)-one]", "EC50": 1300},
      {"smiles": "O=c1[nH]c2ccc(-c3cccc(O)c3)cc2cc1-c1cc2cc(CN3CCCCC3)ccc2[nH]1", "note": "[6-(3-hydroxyphenyl)-3-(5-(piperidin-1-ylmethyl)-1H-indol-2-yl)quinolin-2(1H)-one]", "EC50": 6300},
      {"smiles": "COc1cc(-c2ccc3[nH]c(=O)c(-c4cc5cc(CN6CCCCC6)ccc5[nH]4)cc3c2)ccc1O", "note": "[6-(4-hydroxy-3-methoxyphenyl)-3-(5-(piperidin-1-ylmethyl)-1H-indol-2-yl)quinolin-2(1H)-one]", "EC50": "> 10000"},
      {"smiles": "O=c1[nH]c2ccc(-c3cnsc3)cc2cc1-c1cc2cc(CN3CCCCC3)ccc2[nH]1", "note": "[6-(isothiazol-4-yl)-3-(5-(piperidin-1-ylmethyl)-1H-indol-2-yl)quinolin-2(1H)-one]", "EC50": 190},
      {"smiles": "O=c1[nH]c2ccc(Br)cc2cc1-c1cc2cc(CN3CCCCC3)ccc2[nH]1", "note": "[6-bromo-3-(5-(piperidin-1-ylmethyl)-1H-indol-2-yl)quinolin-2(1H)-one]", "EC50": 460}
    ]}
  ]
}
